Laboratory results as given in patent US20240034785A1, “RXR-ALPHA BINDERS AND RXR-ALPHA/PLK1 MODULATORS” (NUCMITO PHARMACEUTICALS CO. LTD., priority 2020, published 2024).

Legend:
[1] = biological target: T1, RXRα heterodimerization with RARγ (Homo sapiens, UniProt P19793); test: Co-immunoprecipitation of Myc-RXRα with FLAG-RARγ in HeLa cells; assay type: cell-based; conditions: 10 μM for 3 hr (FIG. 55)
T1 construct: expressed in transfected cells; host or cells: HeLa
T1 sequence (P19793 1-462): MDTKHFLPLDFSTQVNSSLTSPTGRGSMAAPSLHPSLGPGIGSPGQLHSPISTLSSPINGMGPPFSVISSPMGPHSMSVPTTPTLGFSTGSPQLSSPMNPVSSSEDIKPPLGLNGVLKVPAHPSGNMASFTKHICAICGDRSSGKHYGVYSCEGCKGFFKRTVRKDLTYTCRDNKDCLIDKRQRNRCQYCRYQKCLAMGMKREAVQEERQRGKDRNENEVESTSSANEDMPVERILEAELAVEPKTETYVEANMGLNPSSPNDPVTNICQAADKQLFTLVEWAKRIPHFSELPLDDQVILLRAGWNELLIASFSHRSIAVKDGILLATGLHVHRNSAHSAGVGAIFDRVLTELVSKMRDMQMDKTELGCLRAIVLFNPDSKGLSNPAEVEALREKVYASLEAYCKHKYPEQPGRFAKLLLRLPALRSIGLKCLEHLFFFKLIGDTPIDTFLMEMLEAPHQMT
T1 sequence (P13631 1-454 partner): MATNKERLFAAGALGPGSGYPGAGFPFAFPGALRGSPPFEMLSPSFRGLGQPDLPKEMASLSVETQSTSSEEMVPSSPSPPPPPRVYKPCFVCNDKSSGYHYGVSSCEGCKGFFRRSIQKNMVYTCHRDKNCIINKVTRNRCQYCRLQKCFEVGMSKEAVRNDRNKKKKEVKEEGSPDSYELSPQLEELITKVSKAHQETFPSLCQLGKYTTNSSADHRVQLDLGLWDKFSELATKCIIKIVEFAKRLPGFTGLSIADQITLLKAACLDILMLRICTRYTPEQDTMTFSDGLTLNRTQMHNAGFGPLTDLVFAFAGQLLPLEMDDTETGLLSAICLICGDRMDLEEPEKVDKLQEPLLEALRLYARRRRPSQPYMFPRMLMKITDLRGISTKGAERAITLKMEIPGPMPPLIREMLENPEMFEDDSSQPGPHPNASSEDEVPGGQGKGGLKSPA

[2] = biological target: T2, p-RXRα and PLK1 at the centrosome (Homo sapiens, UniProt P19793); test: In situ proximity ligation assay (PLA) in HepG2 cells; assay type: cell-based; conditions: RO-3306 10 μM for 30 min or compound A1 10 μM for 2 hr (FIG. 56)
T2 construct: endogenous in cells; host or cells: HepG2
T2 sequence (P19793 1-462): T1 sequence (P19793 1-462)
Procedure: An in situ proximity ligation assay (PLA) was performed in HeLa cells and HepG2 by using a DOULINK™ assay kit. Briefly, cells mounted on glass slides were fixed with methanol at −20° C. for 5 min, then permeabilized with 0.05% Triton X-100 in a PBS buffer for 8 min at 4° C., and blocked with a blocking solution for 60 min at 37° C., followed by incubation with primary antibodies for 60 min at 37° C. The slides were then washed three times with wash buffer A, and PLA labeled secondary antibodies (anti-mouse, minus; anti-rabbit, plus) were added and incubated for 60 min at 37° C. The slides were washed two times with wash buffer A and a ligation solution including a ligase was added for 30 min at 37° C. After ligation, the slides were washed two times with wash buffer A and followed by incubation with an amplification buffer including a polymerase for 100 min at 37° C. After amplification, the slides were washed two times with 1×wash buffer B and one time in 0.01×wash buffer B. Finally, the slides were mounted using a minimal volume of a mounting medium with DAPI and analyzed in a confocal microscope after 15 min.

[3] = system: HepG2 cells; test: Centrosome immunofluorescence in metaphase HepG2 cells; assay type: cell-based, human
Procedure: Cells mounted on glass slides were fixed with methanol at −20° C. for 10 min, then permeabilized with 0.05% Triton X-100 in a PBS buffer for 8 min at 4° C., and blocked with 1% bovine serum in PBS for 30 min at room temperature, followed by incubation with primary antibodies at room temperature for 3 hr and detected by FITC-labeled anti-IgG (1:200), anti-goat IgG conjugated with Cy3 (1:200) at room temperature for 1 hr. The cells were costained with 40,6-diamidino-2-phenylindole (DAPI) (1:10,000 dilution) to visualize nuclei. The images were taken under a LEICA TCS SP8 confocal laser scanning microscope system or an LSM-510 confocal laser scanning microscope system.

[4] = system: HeLa cells; test: MT nucleation activity at the centrosomes in cold-treated, reheated HeLa cells; assay type: cell-based, human; conditions: reheated at 37° C., 10 μM (FIG. 59)
[5] = system: cancer cell lines; test: Western blot analysis of mitotic arrest, apoptosis and SAC activation in cancer cell lines; assay type: cell-based, human
[6] = system: HeLa cells; test: Asynchronous or thymidine-synchronized HeLa cells incubated with compound A1; assay type: cell-based, human
Procedure: Cells were synchronized at GUS boundary by a double thymidine block. Briefly, cells cultured in a medium containing 2 mM thymidine for 16 hr were released into a normal medium for 8 hr, subjected to a second thymidine block for 16 hr, and then released into a fresh medium again. Alternatively, cells were synchronized at prometaphase by a thymidine-nocodazole arrest (an 18-hr thymidine arrest and a 5-hr release, followed by a 5-hr 100 ng/mL nocodazole arrest).

[7] = system: QSG-7701 cells; test: Western blot analysis of QSG-7701 normal liver cells; assay type: cell-based, human; conditions: 12 hr (FIG. 61)

Compound: COc1ccc(CC(=O)N/N=C/c2c(O)ccc3ccccc23)cc1 [Compound A1, (E)-N′-((2-hydroxynaphthalen-1-yl)methylene)-2-(4-methoxyphenyl)acetohydrazide]
- RXRα heterodimerization with RARγ (CoIP) [1]: no effect
- in situ interaction between p-RXRα and PLK1 at the centrosome (PLA) [2]: inhibited the in situ interaction
- centrosomal aberrations [3]: caused centrosomal aberrations
- level of PLK1-pT210 at the centrosome ([3]; HepG2 cells, 10 μM for 2 hr after release from TT block for 10 hr (FIG. 57)): reduced the level of PLK1-pT210
- centrosome maturation (γ-tubulin at the centrosomes) ([3]; HepG2 cells, 10 μM for 2 hr after release from TT block for 10 hr (FIG. 58)): suppressed centrosome maturation
- α-tubulin nucleation (MT nucleation activity at the centrosomes) [4]: inhibited α-tubulin nucleation
- apoptosis of cancer cells [5]: induced apoptosis of cancer cells in a dose-dependent and RXRα-dependent manner
- activation of the spindle assembly checkpoint (SAC), mobility-shifted BubR1 ([5]; FIGS. 61, 62 and 68): accompanied with the activation of the spindle assembly checkpoint (SAC)
- nuclear morphology (mitotic catastrophe) ([5]; cancer cells treated with compound A1): exhibited multi-lobular, giant nuclear and/or highly fragmented/bursted nuclei
- induction of mitotic arrest and apoptosis ([5]; various cancer cell lines (HepG2, Bel-7402, SK-Hep-1), 12 hr (FIGS. 61 and 62)): observed
- effectiveness in asynchronous versus synchronized cells ([6]; HeLa cells, 10 μM for 24 hr (FIG. 64)): more effective in asynchronous cells (AS) than in synchronized GUS cells
- cell cycle progression and fate of synchronized HeLa cells upon treatment ([6]; synchronized HeLa cells): progressed through S phase normally and arrested in mitotic phase, which was followed by apoptosis
- effect in p-RXRα-negative noncancerous QSG-7701 cells [7]: but not p-RXRα-negative noncancerous QSG-7701 cells
